Columns and labels:
Type in all cases: in vivo
Parameters in all cases: key: 0 is no effect; 10 is complete control
[1] = system: crabgrass (Digitaria sanguinalis); assay: Test B pre-/postemergence
Outline: (§1)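 Seeds were planted and sprayed preemergence, while plants at 2 to 18 cm (1- to 4-leaf stage) were sprayed postemergence at the same time, with test chemical in a non-phytotoxic solvent mixture containing surfactant. After twelve to sixteen days in a greenhouse, injury was rated visually against untreated controls on a 0–10 scale.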

[2] = system: wheat (Triticum aestivum); assay: Test B pre-/postemergence
Outline: as §1

[3] = system: cocklebur (Xanthium strumarium); assay: Test B pre-/postemergence
Outline: as §1

[4] = system: rape (Brassica napus); assay: Test B pre-/postemergence
Outline: as §1

[5] = system: pigweed (Amaranthus retroflexus); assay: Test B pre-/postemergence
Outline: as §1

[6] = system: purple nutsedge (Cyperus rotundus); assay: Test B pre-/postemergence
Outline: as §1

[7] = system: corn (Zea mays); assay: Test B pre-/postemergence
Outline: as §1

[8] = system: sugar beet (Beta vulgaris); assay: Test B pre-/postemergence
Outline: as §1

[9] = system: velvetleaf (Abutilon theophrasti); assay: Test B pre-/postemergence
Outline: as §1

[10] = system: soybean (Glycine max); assay: Test B pre-/postemergence
Outline: as §1

[11] = system: blackgrass (Alopecurus myosuroides); assay: Test B pre-/postemergence
Outline: as §1

[12] = system: duck salad (Heteranthera limosa); assay: Test B flood test; settings: for Plant response rating, Ducksalad: Postemergence (flood test species)
Outline: (§2)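 Plants were grown to the 2-leaf stage before treatment with test chemical, then held in a greenhouse for twelve to sixteen days. Injury was visually rated against untreated controls on a 0–10 scale, where 0 is no effect and 10 is complete control.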

[13] = system: rice (Oryza sativa); assay: Test B flood test; settings: for Plant response rating, Rice: Postemergence (flood test species)
Outline: as §2

[14] = system: smallflower flatsedge (Cyperus difformis); assay: Test B flood test; settings: for Plant response rating, S. Flatsedge: Postemergence (flood test species)
Outline: as §2

[15] = system: bamyardgrass (Echinochloa crus-galli); assay: Test B flood test; settings: for Plant response rating, Barnyardgrass: Postemergence (flood test species)
Outline: as §2

[16] = Preemergence, Rate 62 g/ha, scale of 0 to 10
[17] = Rate 62 g/ha, Postemergence (flood test)
[18] = Rate 125 g/ha, Postemergence section (flood test species)

Cc1cnc(-n2cnc(C(F)(F)F)c2)nc1C(=O)c1cccc(C(F)(F)F)c1 [Compound 61]
Plant response rating, Crabgrass [1, 16]: 3
Crabgrass plant response rating ([1]; Rate 62 g/ha, Postemergence): 3
Crabgrass plant response rating ([1]; Rate 125 g/ha, Postemergence): 3
Plant response rating, Crabgrass ([1]; Rate 125 g/ha, Preemergence): 5
Plant response rating, Crabgrass ([1]; Rate 250 g/ha, Postemergence): 7
Plant response rating, Crabgrass ([1]; Rate 250 g/ha, Preemergence): 8
Plant response rating, Crabgrass ([1]; Rate 500 g/ha, Postemergence): 9
Plant response rating, Crabgrass ([1]; Rate 500 g/ha, Preemergence): 10
Plant response rating, Wheat [2, 16]: 1
Wheat plant response rating ([2]; Rate 62 g/ha, Postemergence): 3
Wheat plant response rating ([2]; Rate 125 g/ha, Postemergence): 3
Plant response rating, Wheat ([2]; Rate 125 g/ha, Preemergence): 3
Plant response rating, Wheat ([2]; Rate 250 g/ha, Postemergence): 3
Plant response rating, Wheat ([2]; Rate 250 g/ha, Preemergence): 4
Plant response rating, Wheat ([2]; Rate 500 g/ha, Postemergence): 4
Plant response rating, Wheat ([2]; Rate 500 g/ha, Preemergence): 4
Plant response rating, Cocklebur [3, 16]: 0
Cocklebur plant response rating ([3]; Rate 62 g/ha, Postemergence): 3
Cocklebur plant response rating ([3]; Rate 125 g/ha, Postemergence): 7
Plant response rating, Cocklebur ([3]; Rate 125 g/ha, Preemergence): 0
Plant response rating, Cocklebur ([3]; Rate 250 g/ha, Postemergence): 8
Plant response rating, Cocklebur ([3]; Rate 250 g/ha, Preemergence): 1
Plant response rating, Cocklebur ([3]; Rate 500 g/ha, Postemergence): 8
Plant response rating, Cocklebur ([3]; Rate 500 g/ha, Preemergence): 10
Plant response rating, Rape [4, 16]: 4
Rape plant response rating ([4]; Rate 62 g/ha, Postemergence): 6
Rape plant response rating ([4]; Rate 125 g/ha, Postemergence): 7
Plant response rating, Rape ([4]; Rate 125 g/ha, Preemergence): 8
Plant response rating, Rape ([4]; Rate 250 g/ha, Postemergence): 8
Plant response rating, Rape ([4]; Rate 250 g/ha, Preemergence): 9
Plant response rating, Rape ([4]; Rate 500 g/ha, Postemergence): 9
Plant response rating, Rape ([4]; Rate 500 g/ha, Preemergence): 9
Plant response rating, Redroot pigweed [5, 16]: 8
Redroot pigweed plant response rating ([5]; Rate 62 g/ha, Postemergence): 8
Redroot pigweed plant response rating ([5]; Rate 125 g/ha, Postemergence): 9
Plant response rating, Redroot pigweed ([5]; Rate 125 g/ha, Preemergence): 9
Plant response rating, Redroot pigweed ([5]; Rate 250 g/ha, Postemergence): 9
Plant response rating, Redroot pigweed ([5]; Rate 250 g/ha, Preemergence): 9
Plant response rating, Redroot pigweed ([5]; Rate 500 g/ha, Postemergence): 9
Plant response rating, Redroot pigweed ([5]; Rate 500 g/ha, Preemergence): 10
Plant response rating, Nutsedge [6, 16]: 0
Nutsedge plant response rating ([6]; Rate 62 g/ha, Postemergence): 0
Nutsedge plant response rating ([6]; Rate 125 g/ha, Postemergence): 0
Plant response rating, Nutsedge ([6]; Rate 125 g/ha, Preemergence): 0
Plant response rating, Nutsedge ([6]; Rate 250 g/ha, Postemergence): 0
Plant response rating, Nutsedge ([6]; Rate 250 g/ha, Preemergence): 0
Plant response rating, Corn [7, 16]: 1
Corn plant response rating ([7]; Rate 62 g/ha, Postemergence): 2
Corn plant response rating ([7]; Rate 125 g/ha, Postemergence): 3
Plant response rating, Corn ([7]; Rate 125 g/ha, Preemergence): 1
Plant response rating, Corn ([7]; Rate 250 g/ha, Postemergence): 3
Plant response rating, Corn ([7]; Rate 250 g/ha, Preemergence): 1
Plant response rating, Corn ([7]; Rate 500 g/ha, Postemergence): 4
Plant response rating, Corn ([7]; Rate 500 g/ha, Preemergence): 2
Plant response rating, Sugarbeets [8, 16]: 10
Sugarbeets plant response rating ([8]; Rate 62 g/ha, Postemergence): 9
Sugarbeets plant response rating ([8]; Rate 125 g/ha, Postemergence): 10
Plant response rating, Sugarbeets ([8]; Rate 125 g/ha, Preemergence): 10
Plant response rating, Sugarbeets ([8]; Rate 250 g/ha, Postemergence): 10
Plant response rating, Sugarbeets ([8]; Rate 250 g/ha, Preemergence): 10
Plant response rating, Sugarbeets ([8]; Rate 500 g/ha, Postemergence): 10
Plant response rating, Sugarbeets ([8]; Rate 500 g/ha, Preemergence): 10
Plant response rating, Velvetleaf [9, 16]: 9
Velvetleaf plant response rating ([9]; Rate 62 g/ha, Postemergence): 7
Velvetleaf plant response rating ([9]; Rate 125 g/ha, Postemergence): 7
Plant response rating, Velvetleaf ([9]; Rate 125 g/ha, Preemergence): 10
Plant response rating, Velvetleaf ([9]; Rate 250 g/ha, Postemergence): 8
Plant response rating, Velvetleaf ([9]; Rate 250 g/ha, Preemergence): 10
Plant response rating, Velvetleaf ([9]; Rate 500 g/ha, Postemergence): 8
Plant response rating, Velvetleaf ([9]; Rate 500 g/ha, Preemergence): 10
Plant response rating, Soybean [10, 16]: 0
Soybean plant response rating ([10]; Rate 62 g/ha, Postemergence): 4
Soybean plant response rating ([10]; Rate 125 g/ha, Postemergence): 5
Plant response rating, Soybean ([10]; Rate 125 g/ha, Preemergence): 1
Plant response rating, Soybean ([10]; Rate 250 g/ha, Postemergence): 5
Plant response rating, Soybean ([10]; Rate 250 g/ha, Preemergence): 1
Plant response rating, Soybean ([10]; Rate 500 g/ha, Postemergence): 6
Plant response rating, Soybean ([10]; Rate 500 g/ha, Preemergence): 2
Plant response rating, Blackgrass [11, 16]: 1
Blackgrass plant response rating ([11]; Rate 62 g/ha, Postemergence): 3
Blackgrass plant response rating ([11]; Rate 125 g/ha, Postemergence): 4
Plant response rating, Blackgrass ([11]; Rate 125 g/ha, Preemergence): 3
Plant response rating, Blackgrass ([11]; Rate 250 g/ha, Postemergence): 6
Plant response rating, Blackgrass ([11]; Rate 250 g/ha, Preemergence): 5
Plant response rating, Blackgrass ([11]; Rate 500 g/ha, Postemergence): 8
Plant response rating, Blackgrass ([11]; Rate 500 g/ha, Preemergence): 8
Ducksalad plant response rating [12, 17]: 0
Ducksalad plant response rating [12, 18]: 1
Plant response rating, Ducksalad ([12]; Rate 250 g/ha): 3
Plant response rating, Ducksalad ([12]; Rate 500 g/ha): 5
Rice plant response rating [13, 17]: 0
Rice plant response rating [13, 18]: 0
Plant response rating, Rice ([13]; Rate 250 g/ha): 2
Plant response rating, Rice ([13]; Rate 500 g/ha): 2
S. Flatsedge plant response rating [14, 17]: 3
S. Flatsedge plant response rating [14, 18]: 7
Plant response rating, S. Flatsedge ([14]; Rate 250 g/ha): 8
Plant response rating, S. Flatsedge ([14]; Rate 500 g/ha): 9
Barnyardgrass plant response rating [15, 17]: 2
Barnyardgrass plant response rating [15, 18]: 3
Plant response rating, Barnyardgrass ([15]; Rate 250 g/ha): 3
Plant response rating, Barnyardgrass ([15]; Rate 500 g/ha): 4

— US6525001B1, “Substituted pyrimidine and pyridine herbicides” (Mid-American Commercialization Corporation, priority 1997, dated 2003)
